We go through eight compounds from ChEMBL document CHEMBL1201862, “PubChem BioAssay data set” (2004).

What all share (assay): NCI tumour cell line growth inhibition, 48 h
For assay [1], the system named is HCT-116.
The subject of assay [2] is EKVX.
Assay [3] relates to A549.
The subject of assay [4] is SK-OV-3.
The subject of assay [5] is OVCAR-5.
Assay [6] has as its system HCC 2998.
Assay [7] deals with K562.
Assay [8] deals with SW-620.
The subject of assay [9] is SN12C.
The subject of assay [10] is CCRF-CEM.
Assay [11] has as its system DMS-273.
The test system of assay [12] is SF-268.
For assay [13], the system named is MOLT-4.
Assay [14] concerns SF-539.
Assay [15] concerns RXF 393.
For assay [16], the system named is U-251.
The subject of assay [17] is SK-MEL-28.
Assay [18] relates to HCT-15.
Assay [19] deals with HOP-92.
In assay [20] the test system is UO-31.

Molecules are shown by their SMILES.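 Cells were grown in 96-well plates and exposed to each compound for 48 hours at five concentrations; endpoints were interpolated linearly between bracketing concentrations, or set to the highest concentration if not reached. Abbreviation: GI50, concentration required for 50% inhibition of growth.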 Activity calls are given as the source filed them. No stated cut-off is given here; in the data, active = GI50 up to about 1.1 µM and inactive = higher.

Regarding `CCOC(OCC)C(CC)[Se]c1ccccc1[N+](=O)[O-]` (stereo not given), the GI50 in assay [1] is 3.6 µM (inactive); in assay [2], 5.7 µM (inactive); in [3] it was 4.79 µM (inactive); in assay [4], 2.31 µM (inactive); in assay [5], 6.35 µM (inactive); in [6], 1.56 µM (inactive). In addition, the GI50 was 1.93 µM (inactive) in [7]; 2.5 µM (inactive) in assay [8]; 7.94 µM (inactive) in assay [9]; 2 µM (inactive) in [10]; 1.01 µM (active) in assay [11]; 8.04 µM (inactive) in [12]. For the same compound, the GI50 in assay [13] was 2.9 µM (inactive); in assay [14], 2.02 µM (inactive); in assay [15] it was 1.8 µM (inactive); in assay [16], 2.51 µM (inactive); in assay [17] it was 10.5 µM (inactive); in assay [18] it was 1.57 µM. The GI50 in [19] was > 22.2 µM (inactive); in [20] it was 7.43 µM (inactive).
Regarding `O=P(Oc1ccc2ccccc2c1)(N1CC1)N1CC1`, the GI50 was 53.3 µM (inactive) in assay [1]; 13.6 µM (inactive) in [2]; 5.62 µM (inactive) in [3]; 46.3 µM (inactive) in [4]; 34 µM (inactive) in assay [5]; 88.1 µM (inactive) in assay [6]. Also, the GI50 in assay [7] was 37.2 µM (inactive); in assay [8], > 100 µM (inactive); in [9], 23.5 µM (inactive); in assay [10], 44.9 µM (inactive); in assay [11] it was 6.21 µM (inactive); in [12], 2.15 µM (inactive). The GI50 is 53.2 µM (inactive) in [13]; 17.6 µM (inactive) in [14]; 14.3 µM (inactive) in assay [15]; 27.6 µM (inactive) in assay [16]; 28.4 µM (inactive) in assay [17]; more than 100 µM in [18]. In addition, the GI50 in [19] was 24.5 µM (inactive); in assay [20] it was 10.7 µM (inactive).
On to `Cc1ccccc1C(CCCO)C(=O)O` (stereo not given), for which the GI50 in [1] was > 100 µM (inactive); in assay [2], > 100 µM (inactive); in assay [3], > 100 µM (inactive); in assay [4], > 100 µM (inactive); in assay [5] it was > 100 µM (inactive); in assay [6] it was > 10 µM (inactive). For the same compound, the GI50 in assay [7], in [8], in assay [9], in assay [10], in assay [11] and in [12] was > 100 µM (inactive) throughout. For the same compound, the GI50 in assay [13] is > 100 µM (inactive); in assay [14] it was > 100 µM (inactive); in assay [15] it was > 100 µM (inactive); in assay [16], > 100 µM (inactive); in [17] it was > 100 µM (inactive); in assay [18] it was more than 100 µM. In addition, the GI50 in assay [19] and in assay [20] was > 100 µM (inactive) in each case.
For `CC[n+]1c(/C=C/c2ccc(N(CCCl)CCCl)cc2)ccc2cc(I)ccc21`, the GI50 was 0.318 µM (active) in [1]; 2.74 µM (inactive) in assay [2]; 3.04 µM (inactive) in assay [3]; 1.31 µM (inactive) in [4]; 1.96 µM (inactive) in assay [5]; 1.24 µM (inactive) in [6]. In addition, the GI50 is 0.335 µM (active) in [7]; 0.916 µM (active) in assay [8]; 1.28 µM (inactive) in assay [9]; 0.319 µM (active) in [10]; 0.525 µM (active) in assay [11]; 1.78 µM (inactive) in assay [12]. Moreover, the GI50 is 0.723 µM (active) in assay [13]; 0.979 µM (active) in [14]; 0.839 µM (active) in [15]; 0.67 µM (active) in assay [16]; 0.912 µM (active) in assay [17]; 6.52 µM in assay [18]. The GI50 is 0.379 µM (active) in [19] and 5.93 µM (inactive) in assay [20].
On to `O=C(/C=C/c1ccccc1)NC1C=Nc2ccc(Cl)cc2NC1=O` (stereo not given), for which the GI50 is 22.8 µM (inactive) in assay [1]; 31.3 µM (inactive) in assay [2]; 28.2 µM (inactive) in assay [3]; 25.1 µM (inactive) in assay [4]; 44.5 µM (inactive) in assay [5]; 21.2 µM (inactive) in assay [6]. For the same compound, the GI50 in assay [7] was 9.42 µM (inactive); in [8], 7.13 µM (inactive); in assay [9] it was 24.8 µM (inactive); in assay [10] it was 3.52 µM (inactive); in [11], 18.2 µM (inactive); in assay [12], 36.2 µM (inactive). The GI50 in assay [13] is 4.54 µM (inactive); in assay [14], 27.2 µM (inactive); in [15] it was 16.2 µM (inactive); in assay [16], 18.6 µM (inactive); in assay [17], 37.9 µM (inactive); in assay [18], 22.1 µM. The GI50 was 32.2 µM (inactive) in [19] and 11.8 µM (inactive) in assay [20].
`CCSC1=C(C)N(/C=N/C(C)(C)C)CC1`: the GI50 in assay [1], in assay [2], in assay [3], in assay [4], in assay [5] and in assay [6] was > 100 µM (inactive) each time. Besides, the GI50 in assay [7] was > 100 µM (inactive); in assay [8], 20.5 µM (inactive); in [9] it was > 100 µM (inactive); in [10], > 100 µM (inactive); in [11], > 100 µM (inactive); in [12], > 100 µM (inactive). Further, the GI50 in assay [13] is > 100 µM (inactive); in assay [14], > 100 µM (inactive); in assay [15] it was > 100 µM (inactive); in [16], > 100 µM (inactive); in assay [17] it was > 100 µM (inactive); in assay [18], more than 100 µM. In addition, the GI50 in assay [19] and in assay [20] was > 100 µM (inactive) throughout.
As for `O=C1Oc2cc3c(c4cccc1c24)OCN(c1ccc(Cl)cc1)C3`, the GI50 in assay [1] was 11.3 µM (inactive); in [2] it was > 58.2 µM (inactive); in assay [3], 10.2 µM (inactive); in assay [4], > 100 µM (inactive); in assay [5], > 35.8 µM (inactive); in [6] it was 27.4 µM (inactive). For the same compound, the GI50 in assay [7] is 0.923 µM (active); in [8], 7.4 µM (inactive); in assay [9], 13.6 µM (inactive); in [10], 9.23 µM (inactive); in assay [11], 0.423 µM (active); in assay [12], 23.9 µM (inactive). The GI50 in [13] is 7 µM (inactive); in assay [14], 4.46 µM (inactive); in assay [15], > 52.7 µM (inactive); in assay [16], 41.9 µM (inactive); in assay [17], > 49.2 µM (inactive); in assay [18], 2.97 µM. The GI50 in [19] is 20.5 µM (inactive); in [20], 3.03 µM (inactive).
For the compound `COc1cc(CC(=O)O)c([N+](=O)[O-])cc1OC`, the GI50 in [1], in [2], in assay [3], in [4], in assay [5] and in [6] was > 100 µM (inactive) throughout. For the same compound, the GI50 in assay [7], in assay [8], in [9], in [10], in [11] and in assay [12] was > 100 µM (inactive) in each case. The GI50 in assay [13] is > 100 µM (inactive); in assay [14], > 100 µM (inactive); in assay [15], > 100 µM (inactive); in [16] it was > 100 µM (inactive); in assay [17], > 100 µM (inactive); in assay [18], more than 100 µM. For the same compound, the GI50 in assay [19] and in assay [20] was > 100 µM (inactive) throughout.
